Source: patent publication US20120197004A1, “NOVEL ANTI-MICROBIAL PEPTIDOMIMETIC COMPOUNDS AND METHODS TO CALCULATE ANTI-MICROBIAL ACTIVITY” (priority 2006, published 2012)
≈ marks a conversion by molar mass, not a printed value. Where two headings read alike, the source gives them in different places. Where a SMILES comes first, the peptide text is derived from it. [ ]: non-standard residue; d: D form. ξ: configuration not given here. Oic = O=C(O)[C@@H]1C[C@@H]2CCCC[C@@H]2N1; Tic = O=C(O)[C@@H]1Cc2ccccc2CN1; ξTic = O=C(O)C1Cc2ccccc2CN1; ξOic = O=C(O)C1CC2CCCCC2N1; Ahx = NCCCCCC(=O)O; GABA = NCCCC(=O)O

Assays:
[1] = test system: Staphylococcus aureus Methicillin/Gentamicin/Tetracycline Resistant (ATCC 33592); settings: for p(MIC) Staphylococcus aureus ME/GM/TC resistant: -log(MIC); for MIC Staphylococcus aureus ME/GM/TC resistant: Minimal Inhibitory Concentration, tested at 100-0.1 in 1% DMSO; for Minimum Inhibitory Concentration Staphylococcus aureus ME/GM/TC resistant: in vitro MIC, tested at 100, 30, 10, 3, 1, 0.3 and 0.1 μM in 1% DMSO; for Actual Bioactivity: p(MIC) used in Staphylococcus aureus QSAR model
[2] = test system: Mycobacterium ranae (ATCC 110)
[3] = test system: Bacillus subtillis (ATCC 43223); settings: for p(MIC) Bacillus Subtillis: -log(MIC)
[4] = test system: Salmonella typhimurium (ATCC 13311); settings: for p(MIC) Salmonella typhimurium: -log(MIC)
in vitro [5] = settings: rat, microsomes, pH 7.4
in vitro [6] = settings: mouse, microsomes, pH 7.4
in vitro [7] = settings: monkey, microsomes, pH 7.4
in vitro [8] = settings: dog, microsomes, pH 7.4

Compound | p(MIC) Staphylococcus aureus ME/GM/TC resistant [1] | MIC Staphylococcus aureus ME/GM/TC resistant [1] [µM] | Minimum Inhibitory Concentration Staphylococcus aureus ME/GM/TC resistant [1] [µM] | Actual Bioactivity [1] | Actual Bioactivity [2] | MIC Mycobacterium ranae ([2]; ATCC 110) [µM] | Minimum Inhibitory Concentration Mycobacterium ranae ([2]; ATCC 110) [µM] | p(MIC) Bacillus Subtillis [3] | MIC Bacillus Subtillis ([3]; ATCC 43223) [µM] | p(MIC) Salmonella typhimurium [4] | MIC Salmonella typhimurium ([4]; ATCC 13311) [µM] | % hemolysis 100/25 μM (first value) (red blood cells) [%/] | % hemolysis 100/25 μM (second value) (red blood cells) [%] | Minimum Inhibitory Concentration Mycobacterium ranae [2] | other results
CC(=O)NCCCCCC(=O)N[C@@H](Cc1ccccc1)C(=O)N1Cc2ccccc2C[C@H]1C(=O)N1[C@H](C(=O)NCCCCCC(=O)N[C@@H](CCCCN)C(=O)N2Cc3ccccc3C[C@H]2C(=O)N2[C@H](C(=O)NCCCCCC(=O)N[C@@H](Cc3ccccc3)C(=O)N3Cc4ccccc4C[C@H]3C(=O)N3[C@H](C(=O)NCCCCCC(=O)N[C@@H](CCCCN)C(=O)N4Cc5ccccc5C[C@H]4C(=O)N[C@@H](CCCCN)C(=O)N[C@@H](CCCCN)C(=O)N[C@@H](CCCCN)C(=O)N[C@@H](CCCCN)C(N)=O)C[C@@H]4CCCC[C@@H]43)C[C@@H]3CCCC[C@@H]32)C[C@@H]2CCCC[C@@H]21 [FKAB-1Gd2, Ac-Ahx-F-Tic-Oic-Ahx-K-Tic-Oic-Ahx-F-Tic-Oic-Ahx-K-Tic-KKKK-CONH2] (Ac-[Ahx]F[Tic][Oic][Ahx]K[Tic][Oic][Ahx]F[Tic][Oic][Ahx]K[Tic]KKKK-NH2) | 5.00 | 10.00 (≈ 26.7 µg/mL) | 10 | 5.000 | 5.520 | 3.00 (≈ 8 µg/mL) | 3 | 6.00 | 1.00 (≈ 2.67 µg/mL) | 5.00 | 10 (≈ 26.7 µg/mL) | 44.7 | 26.6 | – | –
CC(=O)N[C@@H](Cc1ccccc1)C(=O)N1Cc2ccccc2C[C@H]1C(=O)N1[C@H](C(=O)N[C@@H](CCCCN)C(=O)N2Cc3ccccc3C[C@H]2C(=O)N2[C@H](C(=O)N[C@@H](Cc3ccccc3)C(=O)N3Cc4ccccc4C[C@H]3C(=O)N3[C@H](C(=O)N[C@@H](CCCCN)C(=O)N4Cc5ccccc5C[C@H]4C(=O)N[C@@H](CCCCN)C(=O)N[C@@H](CCCCN)C(=O)N[C@@H](CCCCN)C(=O)N[C@@H](CCCCN)C(=O)N[C@@H](CCCCN)C(=O)N[C@@H](CCCCN)C(N)=O)C[C@@H]4CCCC[C@@H]43)C[C@@H]3CCCC[C@@H]32)C[C@@H]2CCCC[C@@H]21 [FKAB-1Gc1, Ac-F-Tic-Oic-K-Tic-Oic-F-Tic-Oic-K-Tic-KKKKKK-CONH2] (Ac-F[Tic][Oic]K[Tic][Oic]F[Tic][Oic]K[Tic]KKKKKK-NH2) | 5.52 | 3.00 (≈ 7.41 µg/mL) | 3 | 5.520 | 5.520 | 3.00 (≈ 7.41 µg/mL) | – | 6.00 | 1.00 (≈ 2.47 µg/mL) | 5.00 | 10 (≈ 24.7 µg/mL) | 41.3 | 33.5 | 3 µM | SA Activity ([1]; Staphylococcus aureus (SA), Table 30): 3; MR Activity [2]: 3 µM
CC(=O)NCCCC(=O)N[C@@H](Cc1ccccc1)C(=O)N1Cc2ccccc2C[C@H]1C(=O)N1[C@H](C(=O)NCCCC(=O)N[C@@H](CCCCN)C(=O)N2Cc3ccccc3C[C@H]2C(=O)N2[C@H](C(=O)NCCCC(=O)N[C@@H](Cc3ccccc3)C(=O)N3Cc4ccccc4C[C@H]3C(=O)N3[C@H](C(=O)NCCCC(=O)N[C@@H](CCCCN)C(=O)N4Cc5ccccc5C[C@H]4C(=O)N[C@@H](CCCCN)C(=O)N[C@@H](CCCCN)C(=O)N[C@@H](CCCCN)C(=O)N[C@@H](CCCCN)C(=O)N[C@@H](CCCCN)C(N)=O)C[C@@H]4CCCC[C@@H]43)C[C@@H]3CCCC[C@@H]32)C[C@@H]2CCCC[C@@H]21 [FKAB-1Gd3, Ac-Gaba-F-Tic-Oic-Gaba-K-Tic-Oic-Gaba-F-Tic-Oic-Gaba-K-Tic-KKKKK-CONH2] (Ac-[GABA]F[Tic][Oic][GABA]K[Tic][Oic][GABA]F[Tic][Oic][GABA]K[Tic]KKKKK-NH2) | 4.52 | – | – | 4.520 | 5.520 | 3.00 (≈ 8.04 µg/mL) | – | – | 1.00 (≈ 2.68 µg/mL) | – | 10 (≈ 26.8 µg/mL) | 29.7 | 10.5 | 3 µM | selectivity for Mycobacterium ranae over Salmonella typhimurium ([2]; in vitro): 3 fold; Minimum Inhibitory Concentration Bacillus subtillis ([3]; ATCC 43223): 1 µM; Minimum Inhibitory Concentration Salmonella typhimurium ([4]; ATCC 13311): 10 µM
CC(=O)NCC(=O)N[C@@H](Cc1ccccc1)C(=O)N1[C@H](C(=O)NCC(=O)N[C@@H](CCCCN)C(=O)N2[C@H](C(=O)NCC(=O)N[C@@H](Cc3ccccc3)C(=O)N3[C@H](C(=O)NCC(=O)N[C@@H](CCCCN)C(=O)N[C@@H](CCCCN)C(=O)N[C@@H](CCCCN)C(=O)N[C@@H](CCCCN)C(=O)N[C@@H](CCCCN)C(N)=O)C[C@@H]4CCCC[C@@H]43)C[C@@H]3CCCC[C@@H]32)C[C@@H]2CCCC[C@@H]21 [FKAB-1Gf, Ac-GF-Oic-GK-Oic-GF-Oic-GKKKKK-CONH2] (Ac-GF[Oic]GK[Oic]GF[Oic]GKKKKK-NH2) | 0.00 | – | – | 0.000 | 4.000 | 100.00 (≈ 180 µg/mL) | – | 5.52 | 3.00 (≈ 5.41 µg/mL) | 4.00 | 100 (≈ 180 µg/mL) | 5.9 | 3.2 | 100 μM/180 μg/mL | Minimum Inhibitory Concentration Bacillus subtillis ([3]; in vitro MIC): 5.4 µg/mL; Minimum Inhibitory Concentration Salmonella typhimurium ([4]; in vitro MIC): 180 µg/mL; Minimum Inhibitory Concentration Salmonella typhimurium ([4]; in vitro MIC, tested at 100, 30, 10, 3, 1, 0.3 and 0.1 μM in 1% DMSO): 100 µM; % hemolysis 100/25 μM (first value) (red blood cells; 100 μM): 5.9%
NCCCC[C@H](NC(=O)[C@H](CCCCN)NC(=O)[C@H](CCCCN)NC(=O)[C@H](CCCCN)NC(=O)[C@@H]1Cc2ccccc2CN1C(=O)[C@H](CCCCN)NC(=O)CNC(=O)[C@@H]1C[C@@H]2CCCC[C@@H]2N1C(=O)[C@@H]1Cc2ccccc2CN1C(=O)[C@H](Cc1ccccc1)NC(=O)CNC(=O)[C@@H]1C[C@@H]2CCCC[C@@H]2N1C(=O)[C@@H]1Cc2ccccc2CN1C(=O)[C@H](CCCCN)NC(=O)CNC(=O)[C@@H]1C[C@@H]2CCCC[C@@H]2N1C(=O)[C@@H]1Cc2ccccc2CN1C(=O)[C@H](Cc1ccccc1)NC(=O)CN)C(N)=O [FKAB-1Ga, NH2--GF-Tic-Oic-GK-Tic-Oic-GF-Tic-Oic-GK-Tic-KKKK-CONH2] (H-GF[Tic][Oic]GK[Tic][Oic]GF[Tic][Oic]GK[Tic]KKKK-NH2) | 5.00 | – | 10 | 5.000 | 5.000 | 10.00 (≈ 24 µg/mL) | 10 | 6.00 | 1.00 (≈ 2.4 µg/mL) | 5.52 | 3 (≈ 7.2 µg/mL) | 33.4 | 14.3 | – | –
CC(=O)N[C@@H](Cc1ccccc1)C(=O)N1Cc2ccccc2CC1C(=O)N1C(C(=O)N[C@@H](CCCCN)C(=O)N2Cc3ccccc3CC2C(=O)N2C(C(=O)N[C@@H](Cc3ccccc3)C(=O)N3Cc4ccccc4CC3C(=O)N3C(C(=O)N[C@@H](CCCCN)C(=O)N4Cc5ccccc5CC4C(=O)N[C@@H](CCCCN)C(=O)N[C@@H](CCCCN)C(=O)N[C@@H](CCCCN)C(=O)N[C@@H](CCCCN)C(N)=O)CC4CCCCC43)CC3CCCCC32)CC2CCCCC21 (stereo partly drawn) [FKAB-1Gc, Ac-F-Tic-Oic-K-Tic-Oic-F-Tic-Oic-K-Tic-KKKK-CONH2] (Ac-F[ξTic][ξOic]K[ξTic][ξOic]F[ξTic][ξOic]K[ξTic]KKKK-NH2) | – | 3.00 (≈ 6.64 µg/mL) | 3 | – | – | 30.00 (≈ 66.4 µg/mL) | 30 | – | 1.00 (≈ 2.21 µg/mL) | – | 10 (≈ 22.1 µg/mL) | 86.8 | 50 | – | remaining at 0.25 h, 1 μM (in vitro [5]): 73%; remaining at 0.5 h, 1 μM (in vitro [5]): 80%; remaining at 1 h, 1 μM (in vitro [5]): 107%; remaining at 0.25 h, 1 μM (in vitro [6]): 86%; remaining at 0.5 h, 1 μM (in vitro [6]): 10%; remaining at 1 h, 1 μM (in vitro [6]): 7%; remaining at 0.25 h, 1 μM (in vitro [7]): 17%; remaining at 0.5 h, 1 μM (in vitro [7]): 24%; remaining at 1 h, 1 μM (in vitro [7]): 75%; remaining at 0.5 h, 1 μM (in vitro [8]): 14%; remaining at 1 h, 1 μM (in vitro [8]): 46%
